Settings: Liquid; for mass density: Siemens ultrasonic flowmeter; for viscosity: Capillary tube (Ostwald / Ubbelohde) method

CCCCCCC(=O)OCC [ethyl heptanoate]
Settings	mass density [kg/m3]	viscosity [mPa·s]
303.1 K, 6000 kPa	867.7	–
303.19 K, 14980 kPa	877.5	–
303.2 K, 100 kPa	860.8	–
303.2 K, 3020 kPa	864.5	–
303.2 K, 9010 kPa	871.2	–
303.21 K, 11950 kPa	874.5	–
312.72 K, 9120 kPa	–	1.006
312.73 K, 100 kPa	–	0.9036
312.77 K, 6100 kPa	–	0.9702
312.8 K, 3100 kPa	–	0.9452
312.96 K, 100 kPa	851.2	–
313.06 K, 3060 kPa	854.7	–
313.1 K, 12180 kPa	–	1.033
313.13 K, 6090 kPa	858.1	–
313.17 K, 9070 kPa	861.4	–
313.17 K, 15010 kPa	867.9	–
313.17 K, 15170 kPa	–	1.06
313.18 K, 12000 kPa	864.7	–
322.62 K, 100 kPa	–	0.7963
322.71 K, 3120 kPa	–	0.8252
322.76 K, 15110 kPa	–	0.9293
322.78 K, 6130 kPa	–	0.8471
322.85 K, 9090 kPa	–	0.8702
322.91 K, 12080 kPa	–	0.9036
323.09 K, 100 kPa	841.6	–
323.09 K, 15150 kPa	859.2	–
323.1 K, 9100 kPa	852.5	–
323.11 K, 3100 kPa	845.2	–
323.13 K, 12060 kPa	855.8	–
323.14 K, 6110 kPa	848.8	–
333.05 K, 100 kPa	832.1	–
333.14 K, 3010 kPa	835.6	–
333.14 K, 9020 kPa	843.2	–
333.14 K, 12010 kPa	846.8	–
333.18 K, 6080 kPa	839.7	–
333.2 K, 15070 kPa	850.5	–
333.42 K, 15070 kPa	–	0.8106
333.45 K, 100 kPa	–	0.7016
333.5 K, 12100 kPa	–	0.7844
333.57 K, 3070 kPa	–	0.7229
333.6 K, 9160 kPa	–	0.7629
333.63 K, 6130 kPa	–	0.7431
343.02 K, 100 kPa	823	–
343.06 K, 3010 kPa	827.1	–
343.16 K, 100 kPa	–	0.6217
343.19 K, 15000 kPa	842.1	–
343.2 K, 9000 kPa	834.8	–
343.22 K, 9070 kPa	–	0.6801
343.22 K, 12050 kPa	–	0.6996
343.22 K, 12100 kPa	838.5	–
343.23 K, 6050 kPa	831	–
343.27 K, 3070 kPa	–	0.6412
343.27 K, 15120 kPa	–	0.7191
343.38 K, 6080 kPa	–	0.6593
352.71 K, 100 kPa	–	0.5547
352.83 K, 3040 kPa	–	0.5733
352.85 K, 100 kPa	815.1	–
352.86 K, 6100 kPa	–	0.5898
352.9 K, 9030 kPa	–	0.6068
352.95 K, 3090 kPa	819.4	–
352.95 K, 12080 kPa	–	0.6227
353.04 K, 15040 kPa	–	0.6414
353.06 K, 9090 kPa	827.5	–
353.11 K, 6070 kPa	823.2	–
353.14 K, 12070 kPa	831.2	–
353.23 K, 15010 kPa	835.1	–

CCCCCCCC(=O)OCC [ethyl octanoate]
Settings	mass density [kg/m3]	viscosity [mPa·s]
303.25 K, 100 kPa	858.1	–
303.26 K, 12080 kPa	871	–
303.3 K, 6080 kPa	864.4	–
303.32 K, 3120 kPa	861.3	–
303.32 K, 9130 kPa	867.8	–
303.33 K, 15080 kPa	874.1	–
312.87 K, 100 kPa	–	1.083
312.96 K, 3120 kPa	–	1.133
313.03 K, 6060 kPa	–	1.189
313.05 K, 100 kPa	849.5	–
313.08 K, 6150 kPa	856.1	–
313.08 K, 9090 kPa	–	1.211
313.1 K, 9150 kPa	859.6	–
313.1 K, 12100 kPa	862.7	–
313.11 K, 15110 kPa	865.9	–
313.12 K, 3140 kPa	853	–
313.12 K, 12070 kPa	–	1.245
313.14 K, 15240 kPa	–	1.284
323 K, 100 kPa	841.1	–
323.07 K, 100 kPa	–	0.9464
323.09 K, 3130 kPa	844.7	–
323.1 K, 6150 kPa	848.1	–
323.13 K, 9110 kPa	851.4	–
323.14 K, 12140 kPa	854.8	–
323.16 K, 3150 kPa	–	0.9842
323.16 K, 15050 kPa	858.1	–
323.17 K, 6110 kPa	–	1.016
323.17 K, 9080 kPa	–	1.043
323.17 K, 12070 kPa	–	1.064
323.19 K, 15060 kPa	–	1.098
333 K, 100 kPa	832.2	–
333.14 K, 100 kPa	–	0.8143
333.14 K, 3100 kPa	836.2	–
333.18 K, 6080 kPa	839.7	–
333.18 K, 9090 kPa	843.3	–
333.2 K, 12100 kPa	846.9	–
333.21 K, 15100 kPa	850.3	–
333.29 K, 3110 kPa	–	0.8536
333.3 K, 6060 kPa	–	0.8851
333.3 K, 9130 kPa	–	0.9101
333.3 K, 15090 kPa	–	0.9551
333.31 K, 12040 kPa	–	0.9301
342.78 K, 100 kPa	–	0.731
343.07 K, 6130 kPa	–	0.7776
343.1 K, 12150 kPa	838.8	–
343.11 K, 100 kPa	823.6	–
343.11 K, 3120 kPa	827.8	–
343.14 K, 6100 kPa	831.7	–
343.16 K, 9070 kPa	835	–
343.16 K, 9090 kPa	–	0.7968
343.17 K, 15000 kPa	842.1	–
343.22 K, 12100 kPa	–	0.8165
343.27 K, 15050 kPa	–	0.8446
343.41 K, 3120 kPa	–	0.7572
353.1 K, 100 kPa	814.5	–
353.16 K, 9130 kPa	826.8	–
353.21 K, 100 kPa	–	0.6393
353.21 K, 3150 kPa	819	–
353.24 K, 15070 kPa	834.4	–
353.25 K, 12140 kPa	830.7	–
353.27 K, 6150 kPa	823	–
353.32 K, 3120 kPa	–	0.6742
353.35 K, 6090 kPa	–	0.691
353.35 K, 12080 kPa	–	0.7292
353.36 K, 15060 kPa	–	0.7479
353.38 K, 9070 kPa	–	0.707
